{"source": "patent US20250263424A1", "about": "“KRAS INHIBITORS” (Bristol-Myers Squibb Company, priority 2022, published 2025)", "data": [{"target": "Recombinant GMPPNP-loaded KRAS G12C (KRAS-G12C(ON), active form) (Homo sapiens, UniProt P01116, G12C)", "sequence (P01116 1-188 isoform P01116-2 G12C)": "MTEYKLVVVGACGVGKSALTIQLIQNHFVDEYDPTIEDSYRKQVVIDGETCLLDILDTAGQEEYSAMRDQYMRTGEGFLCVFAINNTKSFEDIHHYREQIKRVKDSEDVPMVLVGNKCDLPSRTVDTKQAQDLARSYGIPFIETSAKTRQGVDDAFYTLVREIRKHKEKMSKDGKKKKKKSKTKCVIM", "experiment": "KRAS G12C RAF Disruption Assay (HTRF)", "format": "biochemical", "conditions": "GMPPNP-loaded KRAS G12C 5 nM, GST-RAF1 RBD 9 nM, values given in μM, read-out: KRASG12C RAF Disruption Assay (IC50)", "method_in_brief": "(§1)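 GMPPNP-loaded KRAS G12C (5 nM) preincubated with compound 20 min at room temperature in Tris pH 7.5 buffer with MgCl2, DTT and BSA. GST-RAF1 RBD (9 nM) then added for 20 min, and SA-Tb (0.25 nM) for 3 h. HTRF 520/495 ratio read; IC50 taken from the dose-response curve.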", "units": {"IC50": "µM"}, "values": [{"smiles": "Cc1cc(N)nc(-c2c(Cl)cc3c(N4[C@@H]5CC[C@H]4[C@H]4CN(C(=O)/C(F)=C/c6nccs6)C[C@H]45)nc(OC[C@]45CCCN4C[C@H](F)C5)nc3c2F)c1C(F)(F)F", "note": "(atropisomer, axis not shown; (aR)) [Example 17, (Z)-1-((3aR,4S,7R,7aS)-8-((7M)-7-(6-amino-4-methyl-3-(trifluoromethyl)pyridin-2-yl)-6-chloro-8-fluoro-2-(((2R,7aR)-2-fluorotetrahydro-1H-pyrrolizin-7a(5H)-yl)methoxy)quinazolin-4-yl)octahydro-2H-4,7-epiminoisoindol-2-yl)-2-fluoro-3-(thiazol-2-yl)prop-2-en-1-one]", "IC50": 5.8}, {"smiles": "C#Cc1c(F)ccc2cc(O)cc(-c3c(Cl)cc4c(N5CC6CCC(C5)N6C(=O)/C(F)=C/c5ccccn5)nc(OC[C@@H]5CCCN5C)nc4c3F)c12", "note": "(single isomer, unassigned) [Example 20, Isomer 2]", "IC50": "> 100"}, {"smiles": "C[C@H]1CN(C(=O)/C(F)=C/c2ncccn2)CCN1c1nc(OC[C@@H]2CCCN2C)nc2c(F)c(-c3cccc4cccc(Cl)c34)c(Cl)cc12", "note": "[Example 2, (Z)-1-((3S)-4-(6-chloro-7-(8-chloronaphthalen-1-yl)-8-fluoro-2-(((S)-1-methylpyrrolidin-2-yl)methoxy)quinazolin-4-yl)-3-methylpiperazin-1-yl)-2-fluoro-3-(pyrimidin-2-yl)prop-2-en-1-one]", "IC50": 61.3}, {"smiles": "Cc1cc(N)nc(-c2c(Cl)cc3c(N4CCC5C(CCN5C(=O)/C(F)=C/c5nccs5)C4)nc(OC[C@]45CCCN4C[C@H](F)C5)nc3c2F)c1C(F)(F)F", "note": "(single isomer, unassigned) [Example 26, Isomer 1]", "IC50": 3.37}, {"smiles": "C[C@H]1CN(C(=O)/C(F)=C/c2ccccn2)CCN1c1nc(OC[C@@H]2CCCN2C)nc2c(F)c(-c3cccc4cccc(Cl)c34)c(Cl)cc12", "note": "(single isomer, unassigned) [Example 3]", "IC50": 5.5}, {"smiles": "Cc1cc(N)nc(-c2c(Cl)cc3c(N4CC5CCC(C4)N5C(=O)/C(F)=C/c4ccccn4)nc(OC[C@]45CCCN4C[C@H](F)C5)nc3c2F)c1C(F)(F)F", "note": "(single isomer, unassigned) [Example 5]", "IC50": 2.7}, {"smiles": "Cc1cc(N)nc(-c2c(Cl)cc3c(N4CCC5C4CCN5C(=O)/C(F)=C/c4nccs4)nc(OC[C@]45CCCN4C[C@H](F)C5)nc3c2F)c1C(F)(F)F", "note": "(single isomer, unassigned) [Example 25, Isomer 2]", "IC50": 67.6}, {"smiles": "Cc1cc(N)nc(-c2c(Cl)cc3c(N4C[C@H]5CC[C@@H]4[C@@H]5NC(=O)/C(F)=C/c4nccs4)nc(OC[C@@H]4CCCN4C)nc3c2F)c1C(F)(F)F", "note": "(atropisomer, axis not shown; (M)) [Example 49, (2Z)-N-[(1R,4R,7R)-2-[(7M)-7-[6-amino-4-methyl-3-(trifluoromethyl)pyridin-2-yl]-6-chloro-8-fluoro-2-{[(2S)-1-methylpyrrolidin-2-yl]methoxy}quinazolin-4-yl]-2-azabicyclo[2.2.1]heptan-7-yl]-2-fluoro-3-(1,3-thiazol-2-yl)prop-2-enamide]", "IC50": 2.26}]}, {"target": "Recombinant GMPPNP-loaded KRAS G12C (KRAS-G12C(ON), active form) (Homo sapiens, UniProt P01116, G12C)", "experiment": "KRAS G12C RAF Disruption Assay (HTRF)", "format": "biochemical", "conditions": "GMPPNP-loaded KRAS G12C 5 nM, GST-RAF1 RBD 9 nM, values in nM, read-out: KRASG12C RAF Disruption Assay (IC50)", "method_in_brief": "as §1", "units": {"IC50": "µM"}, "values": [{"smiles": "CN1CCC[C@H]1COc1nc(N2C[C@H]3CC[C@@H](C2)N3C(=O)/C(F)=C/c2ccccn2)c2ccc(-c3ccc(F)c4sc(N)nc34)c(F)c2n1", "note": "[Example 80, (Z)-1-((1R,5S)-3-(7-(2-amino-7-fluorobenzo[d]thiazol-4-yl)-8-fluoro-2-(((S)-1-methylpyrrolidin-2-yl)methoxy)quinazolin-4-yl)-3,8-diazabicyclo[3.2.1]octan-8-yl)-2-fluoro-3-(pyridin-2-yl)prop-2-en-1-one]", "IC50": 0.55}, {"smiles": "Cc1ccc2[nH]ncc2c1-c1ccc2c(N3CCN(C(=O)/C(F)=C/c4ccccn4)[C@@H](CC#N)C3)nc(OC[C@@H]3CCCN3C)nc2c1F", "note": "[Example 50, 2-((2S)-1-((Z)-2-fluoro-3-(pyridin-2-yl)acryloyl)-4-(8-fluoro-7-(5-methyl-1H-indazol-4-yl)-2-(((S)-1-methylpyrrolidin-2-yl)methoxy)quinazolin-4-yl)piperazin-2-yl)acetonitrile]", "IC50": 0.1}, {"smiles": "N#CC[C@H]1CN(c2nc(OC[C@@]34CCCN3C[C@H](F)C4)nc3c(F)c(-c4cccc5cccc(Cl)c45)ccc23)CCN1C(=O)/C(F)=C/c1ccccn1", "note": "[Example 41, 2-((S)-4-(7-(8-chloronaphthalen-1-yl)-8-fluoro-2-(((2R,7aS)-2-fluorotetrahydro-1H-pyrrolizin-7a(5H)-yl)methoxy)quinazolin-4-yl)-1-((Z)-2-fluoro-3-(pyridin-2-yl)acryloyl)piperazin-2-yl)acetonitrile]", "IC50": 0.046}, {"smiles": "CN1CCC[C@H]1COc1nc(N2CCN(C(=O)/C(F)=C/c3nccs3)CC2)c2ccc(-c3cc(O)cc4ccccc34)c(F)c2n1", "note": "[Example 29, (S,Z)-2-fluoro-1-(4-(8-fluoro-7-(3-hydroxynaphthalen-1-yl)-2-((1-methylpyrrolidin-2-yl)methoxy)quinazolin-4-yl)piperazin-1-yl)-3-(thiazol-2-yl)prop-2-en-1-one]", "IC50": 0.18}, {"smiles": "CN1CCC[C@H]1COc1nc(N2CCN(C(=O)/C(F)=C/c3ccccn3)[C@@H](CC#N)C2)c2ccc(-c3cccc4cccc(Cl)c34)c(F)c2n1", "note": "[Example 37, 2-((S)-1-((Z)-2-fluoro-3-(pyridin-2-yl)acryloyl)-4-(8-fluoro-7-(8-chloronaphthalen-1-yl)-2-(((S)-1-methylpyrrolidin-2-yl)methoxy)quinazolin-4-yl)piperazin-2-yl)acetonitrile]", "IC50": 0.11}, {"smiles": "N#CC[C@H]1CN(c2nc(OC[C@@]34CCCN3C[C@H](F)C4)nc3c(F)c(-c4cc(O)cc5ccccc45)ccc23)CCN1C(=O)/C(F)=C/c1ccccn1", "note": "[Example 39, 2-((S)-4-(8-fluoro-2-(((2R,7aS)-2-fluorotetrahydro-1H-pyrrolizin-7a(5H)-yl)methoxy)-7-(3-hydroxynaphthalen-1-yl)quinazolin-4-yl)-1-((Z)-2-fluoro-3-(pyridin-2-yl)acryloyl)piperazin-2-yl)acetonitrile]", "IC50": 0.023}, {"smiles": "Cc1ccc2[nH]ncc2c1-c1ccc2c(N3CCN(C(=O)/C(F)=C/c4cccnn4)[C@@H](CC#N)C3)nc(OC[C@@H]3CCCN3C)nc2c1F", "note": "[Example 53]", "IC50": 0.07}, {"smiles": "N#CC[C@H]1CN(c2nc(OC[C@@]34CCCN3C[C@H](F)C4)nc3c(F)c(-c4cccc5cccc(Cl)c45)ccc23)CCN1C(=O)/C(F)=C/c1nccs1", "note": "[Example 75, 2-((S)-4-(7-(8-chloronaphthalen-1-yl)-8-fluoro-2-(((2R,7aS)-2-fluorotetrahydro-1H-pyrrolizin-7a(5H)-yl)methoxy)quinazolin-4-yl)-1-((Z)-2-fluoro-3-(thiazol-2-yl)acryloyl)piperazin-2-yl)acetonitrile]", "IC50": 0.06}, {"smiles": "CN1CCC[C@H]1COc1nc(N2CCN(C(=O)/C(F)=C/c3ccccn3)[C@@H](CC#N)C2)c2ccc(-c3cc(Cl)ccc3OC(F)(F)F)c(F)c2n1", "note": "[Example 65, 2-((S)-4-(7-(5-chloro-2-(trifluoromethoxy)phenyl)-8-fluoro-2-(((S)-1-methylpyrrolidin-2-yl)methoxy)quinazolin-4-yl)-1-((Z)-2-fluoro-3-(pyridin-2-yl)acryloyl)piperazin-2-yl)acetonitrile]", "IC50": 2.1}]}]}
